Source: patent US11173170B2, “Prebiotic composition and its methods of production” (Optibiotix Limited, priority 2014, dated 2021)

Assays:
Test in all cases: Anaerobic cultures, gut bacterial groups by fluorescent in situ hybridisation at 24 hours
Format in all cases: cell-based
Clostridia = details: for Clostridia count, 24: 24 hours, anaerobic culture, inoculum 7.55; for Clostridia, 24 hr % change: 24 hr vs inoculum
Method: (§1) In these experiments, anaerobic cultures were tested to evaluate the in vitro utilisation of a novel Lactobacillus reuteri galactooligosaccharide by monitoring the populations of gut bacterial groups at 24 hours using fluorescent in situ hybridisation, and short-chain fatty acid (SCFA). Fructooligosaccharides (FOS), melibiose and raffinose were used as reference carbohydrates.

Bacteroides = tested on: Bacteroides
Method: as §1

Bifidobacteria = tested on: Bifidobacteria
Method: as §1

E. coli = tested on: E. coli
Method: as §1

Eubacteria = tested on: Eubacteria
Method: as §1

Lactobacilli = tested on: Lactobacilli
Method: as §1

Total count = tested on: Total count
Method: as §1

OC[C@H]1O[C@H](OC[C@H]2O[C@H](O[C@]3(CO)O[C@H](CO)[C@@H](O)[C@@H]3O)[C@H](O)[C@@H](O)[C@@H]2O)[C@H](O)[C@@H](O)[C@H]1O [Raffinose, raffinose]
Clostridia count, 24 (Clostridia): 7.81 | Clostridia, 24 hr % change (Clostridia): 103%

OC[C@H]1O[C@H](OCC2O[C@@H](O)[C@H](O)[C@@H](O)[C@@H]2O)[C@H](O)[C@@H](O)[C@H]1O (stereo partly shown) [Melibiose, melibiose]
Bacteroides count, 24 (Bacteroides; 24 hours, anaerobic culture, inoculum 7.98): 7.9 | Bacteroides, 24 hr % change (Bacteroides; 24 hr vs inoculum): 99% | Bifidobacteria count, 24 (Bifidobacteria; 24 hours, anaerobic culture, inoculum 6.85): 7.33 | Bifidobacteria, 24 hr % change (Bifidobacteria; 24 hr vs inoculum): 107% | Clostridia count, 24 (Clostridia): 7.65 | Clostridia, 24 hr % change (Clostridia): 101% | E. coli count, 24 (E. coli; 24 hours, anaerobic culture, inoculum 8.14): 7.66 | E. coli, 24 hr % change (E. coli; 24 hr vs inoculum): 94% | Eubacteria count, 24 (Eubacteria; 24 hours, anaerobic culture, inoculum 8.06): 7.84 | Eubacteria, 24 hr % change (Eubacteria; 24 hr vs inoculum): 97% | Lactobacilli count, 24 (Lactobacilli; 24 hours, anaerobic culture, inoculum 7.15): 7.43 | Lactobacilli, 24 hr % change (Lactobacilli; 24 hr vs inoculum): 104% | Total count, 24 (Total count; 24 hours, anaerobic culture, inoculum 8.84): 9.14 | Total count, 24 hr % change (Total count; 24 hr vs inoculum): 103%
